Twelve molecules from ChEMBL document CHEMBL1201862, “PubChem BioAssay data set” (2004) can be followed below.

Some test systems named below: SK-OV-3; HCT-15; NCI-H460; SF-268; OVCAR-3; K562; HCC 2998; Malme-3M; SW-620; NCI-H226; RXF 393; COLO 205; MOLT-4; SK-MEL-2; HL-60; HOP-92; SF-539; TK-10; M14; SR.
Holding throughout (experiment): NCI-60 cell line screen, 48 h

Molecules are shown by their SMILES.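 48-hour exposure; five concentrations; linearly interpolated endpoints. GI50 = concentration required for 50% inhibition of growth.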 The source made the active and inactive calls. Rule as the data show it: active = GI50 up to about 1.1 µM and inactive = higher.

Regarding `C[C@H]1COC(c2ccccn2)=N1`, the GI50 with SK-OV-3 is > 100 µM (inactive); in the experiment with HCT-15 it was greater than 100 µM; with NCI-H460, > 100 µM (inactive); in the experiment on SF-268 it was > 100 µM (inactive); in the experiment with OVCAR-3 it was > 100 µM (inactive); in the experiment with K562, > 100 µM (inactive). Moreover, the GI50 in the experiment on HCC 2998, in the experiment on Malme-3M, in the experiment with SW-620, in the experiment on NCI-H226, in the experiment with RXF 393 and in the experiment on COLO 205 was > 100 µM (inactive) in each case. Also, the GI50 in the experiment with MOLT-4, in the experiment with SK-MEL-2, with HL-60, in the experiment on HOP-92 and in the experiment with SF-539 was > 100 µM (inactive) throughout.
Take `CC(=O)C1CC(C)=CCC12C(=O)Nc1ccccc12` (stereo not given): the GI50 is > 100 µM (inactive) in the experiment with SK-OV-3; greater than 100 µM in the experiment with HCT-15; > 100 µM (inactive) in the experiment on NCI-H460; > 100 µM (inactive) with SF-268; > 100 µM (inactive) in the experiment with TK-10; > 100 µM (inactive) in the experiment with OVCAR-3. Besides, the GI50 in the experiment with K562, in the experiment on HCC 2998, in the experiment on M14, with Malme-3M, in the experiment with SW-620 and with NCI-H226 was > 100 µM (inactive) each time. In addition, the GI50 was 13.9 µM (inactive) in the experiment with RXF 393; > 100 µM (inactive) with COLO 205; 43 µM (inactive) in the experiment on MOLT-4; > 100 µM (inactive) in the experiment on SK-MEL-2; > 100 µM (inactive) in the experiment with HL-60; > 100 µM (inactive) with HOP-92. Besides, the GI50 with SF-539 was > 100 µM (inactive).
For the molecule `COC(=O)/C=c1\s/c(=C\C(=O)OC)c2ccccc12`, the GI50 with SK-OV-3 is > 100 µM (inactive); in the experiment on HCT-15 it was 33.8 µM; in the experiment on SF-268 it was > 100 µM (inactive); in the experiment on TK-10 it was > 100 µM (inactive); in the experiment with OVCAR-3, > 100 µM (inactive); in the experiment with K562, > 100 µM (inactive). Further, the GI50 is > 100 µM (inactive) in the experiment with HCC 2998; > 100 µM (inactive) with M14; > 100 µM (inactive) with Malme-3M; > 100 µM (inactive) in the experiment with SW-620; 57.8 µM (inactive) in the experiment with NCI-H226; > 100 µM (inactive) in the experiment on RXF 393. Also, the GI50 with COLO 205, with MOLT-4, in the experiment with SK-MEL-2, in the experiment on HL-60, in the experiment with HOP-92 and in the experiment with SF-539 was > 100 µM (inactive) in each case.
As for `CCNCCCCNCC`, the GI50 in the experiment with SK-OV-3 is > 3750 µM (inactive); with HCT-15 it was greater than 3750 µM; in the experiment on NCI-H460, 525 µM (inactive); in the experiment with SF-268, > 2990 µM (inactive); in the experiment on OVCAR-3, > 3750 µM (inactive); in the experiment on K562, > 3750 µM (inactive). In addition, the GI50 with HCC 2998 was > 2670 µM (inactive); in the experiment with Malme-3M, > 3750 µM (inactive); in the experiment with SW-620 it was > 3750 µM (inactive); in the experiment on NCI-H226, 2420 µM (inactive); in the experiment with RXF 393, > 3260 µM (inactive); with COLO 205 it was > 3750 µM (inactive). Further, the GI50 in the experiment with MOLT-4 is 1390 µM (inactive); with SK-MEL-2, > 3750 µM (inactive); with HL-60, 736 µM (inactive); with HOP-92, > 3750 µM (inactive); in the experiment on SF-539, > 3750 µM (inactive).
`CC(=O)OC(C)C(=O)C1c2cccc(O)c2C(=O)c2c(O)cc(C)cc21` (stereo not given): the GI50 in the experiment with SK-OV-3 was 0.546 µM (active); in the experiment on HCT-15 it was 0.479 µM; in the experiment on NCI-H460, 0.375 µM (active); with SF-268 it was 0.381 µM (active); with TK-10, 1.42 µM (inactive); in the experiment with OVCAR-3 it was 0.427 µM (active). For the same molecule, the GI50 in the experiment on K562 is 0.354 µM (active); with HCC 2998 it was 0.429 µM (active); with Malme-3M, 0.56 µM (active); with SW-620, 0.502 µM (active); with NCI-H226, 0.319 µM (active); in the experiment with RXF 393, 0.259 µM (active). Further, the GI50 was 1.65 µM (inactive) in the experiment on COLO 205; 3.06 µM (inactive) in the experiment with MOLT-4; 0.429 µM (active) in the experiment with SK-MEL-2; 0.308 µM (active) with HL-60; 0.288 µM (active) in the experiment with HOP-92; 0.254 µM (active) in the experiment on SF-539.
With `CC1=CCC2CC1C(C(=O)c1c[nH]c3ccccc13)=NC2(C)C` (stereo not given), the GI50 with SK-OV-3 was 94.4 µM (inactive); with HCT-15, 45.2 µM; in the experiment with NCI-H460 it was 52.4 µM (inactive); with SF-268, > 100 µM (inactive); with OVCAR-3, > 100 µM (inactive); with K562, 34 µM (inactive). Further, the GI50 in the experiment on HCC 2998 was > 100 µM (inactive); in the experiment on M14, 41.5 µM (inactive); in the experiment with Malme-3M, > 100 µM (inactive); with SW-620, 76 µM (inactive); in the experiment on NCI-H226, > 100 µM (inactive); with COLO 205, 52.2 µM (inactive). The GI50 was 22.9 µM (inactive) in the experiment with MOLT-4, 4.5 µM (inactive) with SR, 20.8 µM (inactive) in the experiment with HL-60 and > 100 µM (inactive) in the experiment on SF-539.
As to `CC(=O)NC(CCCNC(=O)N(C)N=O)C(=O)NCc1ccccc1` (stereo not given), the GI50 in the experiment with SK-OV-3 is > 100 µM (inactive); in the experiment on HCT-15 it was greater than 100 µM; in the experiment on NCI-H460, > 100 µM (inactive); in the experiment on SF-268, > 100 µM (inactive); with TK-10 it was > 100 µM (inactive); in the experiment on OVCAR-3, > 100 µM (inactive). Also, the GI50 in the experiment on K562, with HCC 2998, in the experiment on M14, in the experiment with Malme-3M, in the experiment with SW-620 and in the experiment on NCI-H226 was > 100 µM (inactive) throughout. The GI50 with RXF 393, in the experiment on COLO 205, in the experiment on MOLT-4, with SK-MEL-2, with HOP-92 and with SF-539 was > 100 µM (inactive) throughout.
For the molecule `COc1ccc2oc(-c3cccnc3)cc(=O)c2c1`, the GI50 with NCI-H460 is 32.4 µM (inactive); in the experiment with SF-268 it was 58.3 µM (inactive); with OVCAR-3, 91.8 µM (inactive); with K562, 67.8 µM (inactive); with HCC 2998, > 100 µM (inactive); in the experiment with M14 it was > 100 µM (inactive). Further, the GI50 in the experiment on Malme-3M is > 100 µM (inactive); with NCI-H226, > 100 µM (inactive); in the experiment on RXF 393, > 100 µM (inactive); in the experiment with COLO 205, > 100 µM (inactive); in the experiment with MOLT-4, 36.6 µM (inactive); with SK-MEL-2 it was > 100 µM (inactive). For the same molecule, the figures for the GI50 in the experiment with HL-60 and in the experiment with HOP-92 were 52.5 µM (inactive) and 46.1 µM (inactive), respectively.
Consider `Cc1ccc2oc(=O)c(-c3ccccc3)nc2c1`, for which the GI50 with HCT-15 was 25.1 µM; with NCI-H460, 36.3 µM (inactive); in the experiment on SF-268, 25.2 µM (inactive); in the experiment with TK-10 it was 34 µM (inactive); with OVCAR-3, 46.5 µM (inactive); with K562 it was 24.3 µM (inactive). Moreover, the GI50 in the experiment on HCC 2998 was 19.9 µM (inactive); in the experiment with M14, 43.3 µM (inactive); in the experiment on Malme-3M, 23.4 µM (inactive); in the experiment with SW-620, 22 µM (inactive); with NCI-H226 it was 37.8 µM (inactive); with COLO 205, 24.5 µM (inactive). Moreover, the GI50 in the experiment with MOLT-4 was 10.7 µM (inactive); with SK-MEL-2, 21 µM (inactive); in the experiment on SR, 29.5 µM (inactive); in the experiment on HL-60, > 10 µM (inactive); in the experiment with SF-539, 18.2 µM (inactive).
For the molecule `[N-]=[N+]=CC(=O)CCC(NC(=O)C(CCC(=O)C=[N+]=[N-])NC(=O)CCC(N)C(=O)O)C(=O)O` (stereo not given), the GI50 with SK-OV-3 was > 100 µM (inactive); with HCT-15, greater than 100 µM; in the experiment with NCI-H460 it was > 100 µM (inactive); in the experiment with SF-268, > 100 µM (inactive); with OVCAR-3, > 100 µM (inactive); in the experiment with K562, > 100 µM (inactive). Also, the GI50 with HCC 2998, in the experiment with Malme-3M, in the experiment with SW-620, with NCI-H226, in the experiment with RXF 393 and in the experiment on COLO 205 was > 100 µM (inactive) throughout. For the same molecule, the GI50 in the experiment on MOLT-4, with SK-MEL-2, with HL-60, with HOP-92 and in the experiment with SF-539 was > 100 µM (inactive) each time.
As for `Cc1ccc(S(=O)(=O)N(c2ccccc2F)C2CCCCC2O)cc1` (stereo not given), the GI50 in the experiment with SK-OV-3 was 22.3 µM (inactive); in the experiment on HCT-15 it was 55 µM; with NCI-H460, 45.9 µM (inactive); in the experiment with SF-268 it was 38 µM (inactive); in the experiment on TK-10 it was 97.1 µM (inactive); in the experiment on OVCAR-3 it was 29.5 µM (inactive). For the same molecule, the GI50 with K562 is 42.2 µM (inactive); with HCC 2998 it was 74.6 µM (inactive); in the experiment with M14, 74.1 µM (inactive); in the experiment on Malme-3M, 58.7 µM (inactive); in the experiment with SW-620, 64.4 µM (inactive); in the experiment on NCI-H226 it was > 100 µM (inactive). Also, the GI50 is 27.2 µM (inactive) with COLO 205; 29.4 µM (inactive) with SK-MEL-2; 24.4 µM (inactive) with SR; 23.3 µM (inactive) with HL-60; > 100 µM (inactive) with SF-539.
For the molecule `NC(Cc1cc(I)c(O)c(I)c1)C(=O)O` (stereo not given), the GI50 with SK-OV-3 is > 500 µM (inactive); with HCT-15, 307 µM; with NCI-H460, 301 µM (inactive); with SF-268, > 484 µM (inactive); in the experiment with OVCAR-3 it was > 500 µM (inactive); in the experiment on K562 it was > 500 µM (inactive). The GI50 in the experiment on HCC 2998 is > 500 µM (inactive); in the experiment with Malme-3M it was > 500 µM (inactive); with SW-620, 163 µM (inactive); in the experiment on NCI-H226 it was > 500 µM (inactive); with RXF 393, 252 µM (inactive); with COLO 205, 263 µM (inactive). Besides, the GI50 with MOLT-4 was 401 µM (inactive); in the experiment with SK-MEL-2, > 500 µM (inactive); with HL-60, 185 µM (inactive); in the experiment with HOP-92, 13.6 µM (inactive); with SF-539, > 392 µM (inactive).
